Experimental data reported in EPA's CvTdb concentration-time database.

Tests used:
Rat [1] = test: concentration in brain after dosing; details: 1.5 h; dosed: 2-Methyltetrahydrofuran; 40 mg/kg; iv; Male; Harlan Sprague Dawley
Rat [2] = test: concentration in plasma after dosing; details: 1.5 h; dosed: 2-Methyltetrahydrofuran; 40 mg/kg; iv; Male; Harlan Sprague Dawley
Rat [3] = test: concentration in plasma after dosing; details: 0.2 h; dosed: 2-Methyltetrahydrofuran; 40 mg/kg; iv; Male; Harlan Sprague Dawley
Rat [4] = test: concentration in plasma after dosing; details: 0.5 h; dosed: 2-Methyltetrahydrofuran; 40 mg/kg; iv; Female; Harlan Sprague Dawley
Rat [5] = test: concentration in plasma after dosing; details: 2 min; dosed: 2-Methyltetrahydrofuran; 40 mg/kg; iv; Male; Harlan Sprague Dawley
Rat [6] = test: concentration in plasma after dosing; details: 6 h; dosed: 2-Methyltetrahydrofuran; 40 mg/kg; iv; Male; Harlan Sprague Dawley
Rat [7] = test: concentration in plasma after dosing; details: 7 min; dosed: 2-Methyltetrahydrofuran; 40 mg/kg; iv; Male; Harlan Sprague Dawley
Rat [8] = test: concentration in brain after dosing; details: 6 h; dosed: Fluorotelomer alcohol 8+2; 80 mg/kg; oral; Female; Harlan Sprague Dawley
Rat [9] = test: concentration in brain after dosing; details: 3 h; dosed: Fluorotelomer alcohol 8+2; 24 mg/kg; oral; Male; Harlan Sprague Dawley
Rat [10] = test: concentration in plasma after dosing; details: dosed: 678-39-7, 40 mg/kg, iv, Male, F344
Rat [11] = test: concentration in kidney after dosing; details: 1 h; dosed: Fluorotelomer alcohol 8+2; 24 mg/kg; oral; Male; Harlan Sprague Dawley
Rat [12] = test: concentration in kidney after dosing; details: 3 h; dosed: Fluorotelomer alcohol 8+2; 80 mg/kg; oral; Female; Harlan Sprague Dawley
Rat [13] = test: concentration in liver after dosing; details: 6 h; dosed: Perfluorohexanoic Acid; 80 mg/kg; oral; Female; Harlan Sprague Dawley
Rat [14] = test: concentration in liver after dosing; details: 0.5 h; dosed: Perfluorohexanoic Acid; 80 mg/kg; oral; Male; Harlan Sprague Dawley
Rat [15] = test: concentration in plasma after dosing; details: dosed: Perfluorohexanoic Acid, 40 mg/kg, oral, Male, Harlan Sprague Dawley
Rat [16] = test: concentration in plasma after dosing; details: 0.5 h; dosed: Perfluorohexanoic Acid; 40 mg/kg; iv; Male; F344
Rat [17] = test: concentration in kidney after dosing; details: 1 h; dosed: Perfluorohexanoic Acid; 80 mg/kg; oral; Male; Harlan Sprague Dawley
Rat [18] = test: concentration in plasma after dosing; details: 1 h; dosed: Perfluorohexanoic Acid; 40 mg/kg; iv; Female; Harlan Sprague-Dawley
Rat [19] = test: concentration in plasma after dosing; details: 10 h; dosed: Gemfibrozil; 50 mg/kg; oral; Male; Sprague-Dawley
Rat [20] = test: concentration in plasma after dosing; details: 2 h; dosed: Gemfibrozil; 50 mg/kg; oral; Male; Sprague-Dawley
Rat [21] = test: concentration in plasma after dosing; details: 1 h; dosed: Gemfibrozil; 50 mg/kg; oral; Male; Sprague-Dawley
Rat [22] = test: concentration in plasma after dosing; details: 1 h; dosed: Gemfibrozil; 100 mg/kg; oral; Male; Sprague-Dawley
Rat [23] = test: concentration in plasma after dosing; details: 2 h; dosed: Gemfibrozil; 4.29 mg/kg; oral; Male; Sprague-Dawley
Rat [24] = test: concentration in plasma after dosing; details: 10 h; dosed: Gemfibrozil; 50 mg/kg; oral; Male; Sprague-Dawley; remark: listed apart in the source
Rat [25] = test: concentration in plasma after dosing; details: 18 h; dosed: Gemfibrozil; 100 mg/kg; oral; Male; Sprague-Dawley
Rat [26] = test: concentration in brain after dosing; details: 24 h; dosed: Perfluorooctane Sulfonate; 20 mg/kg; oral; Male; Harlan Sprague Dawley
Rat [27] = test: concentration in liver after dosing; details: 24 h; dosed: Perfluorooctane Sulfonate; 20 mg/kg; oral; Male; Harlan Sprague Dawley
Rat [28] = test: concentration in liver after dosing; details: 6 h; dosed: Perfluorooctane Sulfonate; 2 mg/kg; oral; Female; Harlan Sprague Dawley
Rat [29] = test: concentration in brain after dosing; details: 6 h; dosed: Perfluorooctane Sulfonate; 20 mg/kg; oral; Female; F344
Rat [30] = test: concentration in brain after dosing; details: 24 h; dosed: Perfluorooctane Sulfonate; 2 mg/kg; oral; Female; Harlan Sprague Dawley
Rat [31] = test: concentration in brain after dosing; details: 3360 h; dosed: Perfluorooctane Sulfonate; 20 mg/kg; oral; Male; Harlan Sprague Dawley
Rat [32] = test: concentration in liver after dosing; details: 3360 h; dosed: Perfluorooctane Sulfonate; 20 mg/kg; oral; Male; Harlan Sprague Dawley
Rat [33] = test: concentration in liver after dosing; details: 3360 h; dosed: Perfluorooctane Sulfonate; 20 mg/kg; oral; Male; Harlan Sprague Dawley; remark: listed apart in the source
Rat [34] = test: concentration in kidney after dosing; details: 1848 h; dosed: Perfluorooctane Sulfonate; 2 mg/kg; oral; Female; Harlan Sprague Dawley
Rat [35] = test: concentration in kidney after dosing; details: 6 h; dosed: Perfluorooctane Sulfonate; 2 mg/kg; oral; Female; Harlan Sprague Dawley
Rat [36] = test: concentration in kidney after dosing; details: 3360 h; dosed: Perfluorooctane Sulfonate; 20 mg/kg; oral; Male; Harlan Sprague Dawley
Rat [37] = test: concentration in kidney after dosing; details: 864 h; dosed: Perfluorooctane Sulfonate; 2 mg/kg; oral; Female; Harlan Sprague Dawley
Rat [38] = test: concentration in kidney after dosing; details: 864 h; dosed: Perfluorooctane Sulfonate; 20 mg/kg; oral; Female; F344
Rat [39] = test: concentration in kidney after dosing; details: 3360 h; dosed: Perfluorooctane Sulfonate; 2 mg/kg; oral; Female; Harlan Sprague Dawley
Rat [40] = test: concentration in kidney after dosing; details: 864 h; dosed: Perfluorooctane Sulfonate; 2 mg/kg; oral; Female; Harlan Sprague Dawley; remark: listed apart in the source
Rat [41] = test: concentration in plasma after dosing; details: dosed: Perfluorooctane Sulfonate, 2 mg/kg, iv, Female, F344

CC1CCCO1 (stereo not given) [2-Methyltetrahydrofuran]
Details | concentration in brain [ng/mL] | concentration in plasma [ng/mL]
Rat [1] | 7510 | –
Rat [2] | – | 11000
Rat [3] | – | 36100
Rat [4] | – | 28500
Rat [5] | – | 57400
Rat [6] | – | 10.8
Rat [7] | – | 57300

O=C(O)CCC(F)(F)C(F)(F)C(F)(F)C(F)(F)C(F)(F)C(F)(F)C(F)(F)F [Fluorotelomer acid 7+3]
Details | concentration in brain [ng/g] | concentration in kidney [ng/g]
Rat [8] | 1040 | –
Rat [9] | 440 | –
Rat [11] | – | 568
Rat [12] | – | 5820

Rat [10]
Details | concentration in plasma [ng/mL]
0.5 h | 470
9 h | 2680

O=C(O)C(F)(F)C(F)(F)C(F)(F)C(F)(F)C(F)(F)F [Perfluorohexanoic Acid]
Details | concentration in kidney [ng/g] | concentration in liver [ng/g] | concentration in plasma [ng/mL]
Rat [13] | – | 820 | –
Rat [14] | – | 102000 | –
Rat [16] | – | – | 4980
Rat [17] | 79900 | – | –
Rat [18] | – | – | 98.9

Rat [15]
Details | concentration in plasma [ng/mL]
0.25 h | 44500
6 h | 26700

Cc1ccc(C)c(OCCCC(C)(C)C(=O)O)c1 [Gemfibrozil]
Details | concentration in plasma [ng/mL]
Rat [19] | 4380
Rat [20] | 1970
Rat [21] | 3370
Rat [22] | 57500
Rat [23] | 74.1
Rat [24] | 1930
Rat [25] | 3300

O=S(=O)([O-])C(F)(F)C(F)(F)C(F)(F)C(F)(F)C(F)(F)C(F)(F)C(F)(F)C(F)(F)F [Perfluorooctane Sulfonate]
Details | concentration in brain [ng/g] | concentration in kidney [ng/g] | concentration in liver [ng/g]
Rat [26] | 9740 | – | –
Rat [27] | – | – | 157000
Rat [28] | – | – | 25400
Rat [29] | 3990 | – | –
Rat [30] | 851 | – | –
Rat [31] | 890 | – | –
Rat [32] | – | – | 15700
Rat [33] | – | – | 8480
Rat [34] | – | 980 | –
Rat [35] | – | 3800 | –
Rat [36] | – | 4960 | –
Rat [37] | – | 2960 | –
Rat [38] | – | 35600 | –
Rat [39] | – | 651 | –
Rat [40] | – | 1390 | –

Rat [41]
Details | concentration in plasma [ng/mL]
6 h | 4910
528 h | 2900
3216 h | 277
